Common to all, as to assay: NCI-60 cell line screen, 48 h
The subject of assay [1] is SR.
Assay [2] relates to SNB-75.
The subject of assay [3] is HOP-62.
For assay [4], the system named is SK-MEL-28.
Assay [5] has as its system MOLT-4.
Assay [6] relates to M14.
The test system of assay [7] is OVCAR-3.
Assay [8] has as its system RPMI-8226.
The test system of assay [9] is U-251.
The test system of assay [10] is SF-295.
Assay [11] concerns UACC-62.
The test system of assay [12] is TK-10.
Assay [13] concerns HCT-116.
Assay [14] concerns SF-539.
The subject of assay [15] is NCI-H226.
For assay [16], the system named is A498.
The test system of assay [17] is SK-MEL-5.
Assay [18] deals with SK-MEL-2.
For assay [19], the system named is OVCAR-4.
Assay [20] deals with HOP-92.

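These data come from cells grown in 96-well plates and exposed to compound for 48 hours at five concentrations. Here, GI50 denotes the concentration required for 50% inhibition of growth.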 Activity calls are given as the source filed them. No stated cut-off is given here; in the data, active = GI50 up to about 1.1 µM and inactive = higher.

Regarding `CCCCCCCCCCCCCCCCNc1cccc2ccccc12`, the GI50 in [1], in assay [2], in [3], in assay [4], in assay [5] and in assay [6] was > 100 µM (inactive) each time. In addition, the GI50 in assay [7], in [8], in assay [9], in assay [10], in assay [11] and in [12] was > 100 µM (inactive) each time. The GI50 in assay [13], in assay [14] and in [15] was > 100 µM (inactive) throughout.

As for `COc1cc(/C=C2\N=C(C)N(n3c(-c4ccccc4)nc4ccccc4c3=O)C2=O)cc(OC)c1OC`, the GI50 in assay [1], in assay [2], in [3], in assay [4], in assay [5] and in assay [6] was > 100 µM (inactive) throughout. The GI50 in assay [8] is 85.3 µM (inactive); in [16] it was > 100 µM (inactive); in [10], > 100 µM (inactive); in [11], > 100 µM (inactive); in [12] it was > 100 µM (inactive); in [13] it was > 100 µM (inactive). The GI50 in [14], in assay [17] and in assay [15] was > 100 µM (inactive) in each case.

In the case of `CCOC(=O)C1=C(C(=O)c2ccc(C)cc2)C(c2cccc([N+](=O)[O-])c2)C(C(=O)c2ccc(C)cc2)=C(C(=O)OCC)N1`, the GI50 in [1] was 2.93 µM (inactive); in assay [2], 40.9 µM (inactive); in [3] it was 19.5 µM (inactive); in assay [4], 17.8 µM (inactive); in assay [5], 28.6 µM (inactive); in assay [6] it was 18.1 µM (inactive). For the same molecule, the GI50 is 15.5 µM (inactive) in [7]; 13.1 µM (inactive) in assay [9]; 26.1 µM (inactive) in assay [18]; 25.4 µM (inactive) in assay [19]; 16.1 µM (inactive) in assay [10]; 18.2 µM (inactive) in [11]. The GI50 in assay [12] is 17.2 µM (inactive); in assay [13], 6.75 µM (inactive); in [14] it was 12.8 µM (inactive); in assay [17] it was 17.8 µM (inactive); in assay [15], 19.1 µM (inactive).

Consider `Cc1csc2nc3c(cnn3C)c(=S)n12`, for which the GI50 in assay [1] was > 100 µM (inactive); in assay [2], 28.1 µM (inactive); in [3] it was 50 µM (inactive); in [4], > 100 µM (inactive); in assay [5], > 100 µM (inactive); in assay [6] it was > 100 µM (inactive). The GI50 was > 100 µM (inactive) in assay [7]; > 100 µM (inactive) in assay [8]; 95.3 µM (inactive) in assay [9]; 41.9 µM (inactive) in assay [18]; > 100 µM (inactive) in assay [19]; > 100 µM (inactive) in assay [10]. The GI50 in assay [11] was > 100 µM (inactive); in assay [12] it was 80.5 µM (inactive); in [13], > 100 µM (inactive); in assay [14] it was > 100 µM (inactive); in assay [17] it was > 100 µM (inactive).

As to `CN1CN(c2ccccc2)C2(CCN(CCc3csc4ccccc34)CC2)C1=O`, the GI50 in assay [1] was 11.7 µM (inactive); in assay [2] it was 17.3 µM (inactive); in assay [3], 12.2 µM (inactive); in [4], 15.7 µM (inactive); in assay [5], 10.3 µM (inactive); in assay [6], 16.7 µM (inactive). The GI50 in assay [7] is 12.1 µM (inactive); in assay [8], 6.84 µM (inactive); in assay [9], 14.5 µM (inactive); in assay [11], 19.9 µM (inactive); in assay [12], 14 µM (inactive); in assay [13] it was 11.3 µM (inactive). The GI50 is 11 µM (inactive) in assay [14], 17.5 µM (inactive) in assay [17] and 17.4 µM (inactive) in assay [15].

Consider `O=c1c2ccccc2c2c1c1c3ccccc3c(=O)c1c1c3ccccc3c(=O)c21`, for which the GI50 in [1], in assay [2], in assay [3], in assay [4], in [5] and in [6] was > 100 µM (inactive) throughout. Also, the GI50 in assay [7], in assay [8], in assay [9], in assay [16], in assay [18] and in assay [10] was > 100 µM (inactive) throughout. For the same molecule, the GI50 in assay [11], in [12], in [13], in assay [14], in assay [17] and in assay [15] was > 100 µM (inactive) each time.

Consider `O=C(/C=N/O)Nc1ccc(Cl)c(I)c1`, for which the GI50 in [1] is 15.7 µM (inactive); in assay [3] it was 23.1 µM (inactive); in [4], 27.7 µM (inactive); in assay [5] it was 19.6 µM (inactive); in assay [6], 18.6 µM (inactive); in assay [7] it was 13.6 µM (inactive). The GI50 is 20 µM (inactive) in assay [8]; 16.1 µM (inactive) in assay [9]; 15.7 µM (inactive) in [18]; 28.6 µM (inactive) in [19]; 29.5 µM (inactive) in assay [10]; 10.2 µM (inactive) in [11]. Besides, the GI50 in [12] was 33.6 µM (inactive); in [13], 12.9 µM (inactive); in [17] it was 18.4 µM (inactive); in [15], 0.0445 µM (active).

`CCOC(=O)c1nc2c3c(ncn2n1)Oc1c(c(-c2ccccc2)nn1-c1ccccc1)C3c1ccc(OC)c(OC)c1` (configuration not stated): the GI50 is 51.8 µM (inactive) in assay [1]; 31.3 µM (inactive) in assay [2]; 41.1 µM (inactive) in assay [20]; 16.3 µM (inactive) in [3]; 49.2 µM (inactive) in [4]; > 100 µM (inactive) in [5]. Further, the GI50 was > 100 µM (inactive) in assay [6]; > 100 µM (inactive) in assay [7]; 25.9 µM (inactive) in assay [8]; 31.3 µM (inactive) in assay [9]; > 100 µM (inactive) in [18]; 6.04 µM (inactive) in [19]. The GI50 in [10] was 23.8 µM (inactive); in assay [11], 48.6 µM (inactive); in [12], > 100 µM (inactive); in assay [13], 65.2 µM (inactive); in assay [14], 11.9 µM (inactive); in assay [17] it was 78.9 µM (inactive).

As to `CN(CCN(C)C(=O)CCn1ccc(=O)[nH]c1=O)C(=O)CCn1ccc(=O)[nH]c1=O`, the GI50 in [1] was > 100 µM (inactive); in assay [2], 22.4 µM (inactive); in assay [3] it was > 100 µM (inactive); in assay [4], > 100 µM (inactive); in assay [5], > 100 µM (inactive); in assay [6] it was > 100 µM (inactive). Further, the GI50 in assay [7], in [8], in assay [9], in assay [18], in assay [19] and in [10] was > 100 µM (inactive) each time. For the same molecule, the GI50 in [11], in assay [12], in assay [13], in [14], in [17] and in assay [15] was > 100 µM (inactive) throughout.

With `CN(C)CC(C)(C)C(/C=C/c1ccccc1)=N\Nc1ccccc1`, the GI50 is 0.798 µM (active) in assay [1]; 14.6 µM (inactive) in assay [2]; 2.77 µM (inactive) in assay [3]; 1.89 µM (inactive) in [4]; 0.451 µM (active) in assay [5]; 5.01 µM (inactive) in assay [6]. For the same molecule, the GI50 in [7] is 1.44 µM (inactive); in [8], 1.68 µM (inactive); in assay [9], 0.306 µM (active); in assay [16] it was 21.8 µM (inactive); in [18], 3.6 µM (inactive); in [19] it was 1.06 µM (active). In addition, the GI50 in assay [10] was 0.131 µM (active); in assay [11], 0.0527 µM (active); in assay [12], 0.162 µM (active); in assay [13] it was 0.705 µM (active); in assay [14], 0.28 µM (active); in assay [17], 6.64 µM (inactive).

Take `Cc1nnc(N)nc1/C=C\c1ccc(N(C)C)cc1`: the GI50 in assay [1] is 6.24 µM (inactive); in [2], 2.67 µM (inactive); in assay [3], 38.5 µM (inactive); in assay [4], > 45.9 µM (inactive); in [5], 17.6 µM (inactive); in [6], 27 µM (inactive). The GI50 in assay [8] is 9.86 µM (inactive); in assay [9] it was > 27.1 µM (inactive); in assay [16], 16.6 µM (inactive); in assay [18] it was 39.8 µM (inactive); in assay [19] it was 26.5 µM (inactive); in assay [10] it was > 41.2 µM (inactive). The GI50 in assay [11] is 4.27 µM (inactive); in assay [12] it was > 37.6 µM (inactive); in assay [13] it was 10.8 µM (inactive); in [17], 18.5 µM (inactive); in assay [15], 16.1 µM (inactive).

As for `O=C(CC1(O)C(=O)Nc2ccc([N+](=O)[O-])cc21)c1ccc2ccccc2c1` (configuration not stated), the GI50 in assay [1], in [2], in [3], in assay [4], in assay [5] and in [6] was > 100 µM (inactive) each time. Moreover, the GI50 in [7], in assay [8], in assay [9], in assay [16], in [18] and in assay [19] was > 100 µM (inactive) in each case. For the same molecule, the GI50 in [10], in assay [11], in assay [12], in assay [13], in [14] and in assay [15] was > 100 µM (inactive) in each case.

These data come from ChEMBL document CHEMBL1201862, “PubChem BioAssay data set” (2004).
